Measured values: patent publication US12178223B2, “Insect life cycle interruption agent(LCIA) formulations and their manufacture and use” (priority 2020, dated 2024)
Several values for one entry are separate records, joined by “and”; a condition that tells them apart may be missing. Equal values may be shown once. Marks after values point to notes of the source that are not given here.

Legend:
[1] = Cyromazine residue in eggs (Example 15); parameters: species or system Lohman laying hens; settings: female, Lohman, chicken, in vivo
From the text: (§1) Twenty four Lohman laying hens were placed in conventional layer cages (2 birds per cage) and divided into 6 experimental groups of 4 birds per group.
(§2) The hens were fed for three weeks with laying hens feed (17.5% protein, no AGP) supplemented with a Cyromazine product as summarized in Table 12.
After four weeks of feeding according to the experimental groups of example 13, eggs were collected.
For each treatment 16 eggs were collected (4 eggs from each hen). The contents of the 4 eggs (without the shell) of each bird were pooled in one container marked to indicate the treatment. Each container was a sample. A total of 4 tests were performed for each treatment. The containers were packed in a temperature-controlled pack that was sent for Cyromazine analysis to Eurofines laboratory in Germany.
Samples are weighed and one or more samples is spiked with an internal standard.
Acetonitrile is added and the sample is vortexed. Petroleum ether is added and a liquid/liquid extraction is performed in a shaker followed by centrifugation. An aliquot of the acetonitrile phase is removed and reduced in volume to near dryness then resolved by adding water and methanol. The mixture is vortexed then filtered by membrane filter and analyzed—Liquid chromatographic determination with LC-MS/MS. Quantitation is via comparison with samples spiked with an internal standard.

[2] = test system: young fly larvae (stage 1); assay: Insecticidal activity in manure of hens fed Cyromazine products (Example 14); format: in vivo; settings: Cyromazine in feed 5 PPM
Method: as §1, §2
After three weeks of feeding according to the experimental groups of example 3, manure was collected from each group of hens. The manure was frozen for 48 hours to destroy any insects present and then thawed.
For each experimental group, 5 cups containing 100 g thawed manure were prepared (70-75% moisture). Each cup represents a group replicate.
Thirty young fly larvae (stage 1) were placed in each cup and incubated in an insectarium for 10 days. After ten days the pupae/larvae/flies were counted. Analysis of variance was done using a One Way Anova test and the comparison of means was done with Tukey-Kramer test, significance level-α=0.05.

**Q.** Which results are given for Nc1nc(N)nc(NC2CC2)n1 [NGNEC, Cyromazine]?
**A.** concentration at 4 weeks [1]: 88 ng/g; Cyromazine in eggs, % of Larvadex 0.5% group ([1]; 4 weeks): 102%; Dead larvae and pupas % [2]: 0%; Normal pupa % [2]: 0^b %; Survival rate = (No of flies + normal pupas)/30*100 [2]: 0% and 0^b %; Flies % ([2]; 10 days): 0^b %
